Test [1] has as its system reserpinized rat or mouse. Put plainly: reserpinized rat or mouse (akinesia). The following applies: 24 h after reserpine. It is filed as in vivo. The method, then:
A typical animal model is the reserpinized rat or mouse (e.g. M. S. Starr and B. S. Starr, J. Neural Transm.—Park. Dis. Dement. Sect., 1994; 7: 133-142; M. Gossel et al., J. Neural Transm.—Park. Dis. Dement. Sect., 1995; 10: 27-39; N. R. Hughes et al., Mov. Disord., 1998; 13: 228-233). Reserpine is a potent depleter of monoamines and produces nearly complete akinesia in both species. Prominent 24 h after application, the distance travelled and the time active is nearly zero as measured in conventional activity meters.

The target of another test is 5HT1A receptor (Homo sapiens, UniProt P08908). The test can be described thus: GTP-gamma-S test (5HT1A agonism). The settings on record: in vitro, 5HT1A agonistic properties; read-out: ED50 in GTP-gamma-S test. It is filed as biochemical. From the text:
(§1) The affinity to the 5-HT1A receptor can be determined in vitro by radioligand binding experiments according to Cossery J M et al. (Eur. J. Pharmacol. 1987; 140: 143-155). The functional agonistic properties at the 5HT1A receptor can be determined in vitro in the GTP-gamma-S test (Newman-Tancredi A et al., Eur. J. Pharmacol.1996; 307: 107-111). A standard in vivo animal model to test for the 5HT1A agonistic properties is the ultrasonic vocalization test in rats (e.g. deFry J et al., Eur. J. Pharmacol. 1993; 249: 331-339; Sanchez C, Behav. Pharmacol. 1993; 4: 269-277). The affinity for dopamine D4 receptors can be determined in vitro by radioligand binding experiments according to Klokow M et al. (Drug Res. 1986; 36: 197-200).

The next test deals with Pietrain pig. Put plainly: Campus Syndrome in the Pietrain pig (tremor). The following applies: in vivo. The text has this:
(§2) Typical genetic models in mutant animals are the Campus Syndrome in the Pietrain pig according to A. Richter et al. (Exp. Neurology, 1995; 134: 205-213) or the Weaver mutant mouse according to J. R. Simon and B. Ghetti (Mol. Neurobiol., 1994; 9: 183-189). In the Campus Syndrome model, these mutant pigs show a high-frequency tremor when standing and during locomotion, but not while lying at rest. Assessment of tremor is made by accelerometric recording. In the Weaver mutant mouse, degenerative cerebellar atrophy is […] in association with tremor, gait instability, and toppling over the sides after a few steps.

In test [2] the test system is patients with cervical dystonia (spasmodic torticollis). Put plainly: double-blind study in cervical dystonia (TWSTRS). Format: in vivo, human. The settings on record: 2.5 mg to 20 mg b.i.d.
A further test relates to rats. The test can be described thus: systemic 3-nitropropionic acid (3-NP) model in rats. It is filed as in vivo, rat. The method, then: A typical animal model is the systemic 3-nitropropionic acid (3-NP) model in rats according to C. V. Borlongan et al., Brain Res., 1995; 697: 254-257. Rats are treated with injections of the selective striatal neurotoxin 3-NP i.p. every fourth day (C. V. Borlongan et al., Brain Res. Protocols, 1997; 1: 253-257). After two injections of 3-NP, rats display nocturnal hyperactivity reflecting symptoms of early Huntington's disease, whereas rats treated with four injections of 3-NP display nocturnal akinesia (hypoactivity) reflecting symptoms of late Huntington's disease. Nocturnal activity is automatically measured in conventional acitivity cages by infrared beams. (2R,4R)-2-({[5-(4-fluorophenyl)-pyridin-3ylmethyl]-amino}-methyl)-chroman-4-ol or a pharmaceutical acceptable salt or solvate thereof reduce both the nocturnal hyperactivity and akinesia.

Test [3] relates to neuroleptics sensitized monkey. Put plainly: neuroleptics sensitized monkey. It is filed as in vivo. The settings on record: haloperidol challenge, scoring system. From the text:
Another typical animal model is the neuroleptics sensitized monkey according to D. E. Casey, Psychopharmacology, 1996; 124: 134-140. Monkeys treated repeatedly with conventional neuroleptics are highly sensitive to a subsequent challenge dose of neuroleptic drugs. When challenged, the monkeys immediately show extrapyramidal motor side effects such as dystonia, dyskinesias, akathisia, and bradykinesia which are rated by a scoring system. The conventional neuroleptic drug haloperidol is given as a challenge.

The target in a further test is dopamine D4 receptors (Homo sapiens, UniProt P21917). Put plainly: dopamine D4 receptor radioligand binding. The following applies: in vitro radioligand binding.
Source text: as §1

A further test has as its target 5-HT1A receptor (UniProt P19327). Put plainly: 5-HT1A receptor radioligand binding. The following applies: in vitro radioligand binding; read-out: IC50, binding to 5HT1A receptors.
Source text: as §1

Another test addresses D2 receptors (Homo sapiens, UniProt P14416). Put plainly: binding / inhibitory effect at dopamine D2 receptor.
The subject of a further test is Weaver mutant mouse. Put plainly: Weaver mutant mouse (locomotor activity). The settings on record: in vivo.
Source text: as §2

The next test deals with cataleptic rat. The test can be described thus: reversal of catalepsy in rats. It is filed as in vivo. The following applies: Rattus norvegicus, sc, subcutaneous, read-out: ED50 (calculated dose to reverse catalepsy by 50%). The method, then: R represents hydrogen or a hydroxyl protecting group, and their optical isomers and pharmaceutically acceptable salts, in particular 2-({[5-(4-fluorophenyl)-pyridin-3ylmethyl]-amino}-methyl)-chroman-4-ol or an optical isomer or a physiologically acceptable salt or solvate thereof, excert an extraordinary potency in reversing catalepsy. Extrapyramidal motor side effects in e.g. rodents are measured by the ability of a drug to induce catalepsy. Catalepsy is defined as a state where an animal continues to remain in an unnormal (nonphysiological ‘uncomfortable’) posture for a long time (e.g.: M. E. Stanley and S. D. Glick, Neuropharmacology, 1996; 15: 393-394; C. J. E. Niemegeers and P. Janssen, Life Sci., 1979, […]). For example, if a hindpaw of a rat is placed on an elevated level, e.g. a platform elevated 3 cm above ground level, a normal rat immediately withdraws the hindpaw from the platform to the ground level. A cataleptic rat remains in this unnatural posture even for minutes.

For another test, the system named is rat. Put plainly: striatonigral degeneration model in the rat (turning behavior). Format: in vivo. The following applies: induced by apomorphine or amphetamine. The text has this:
Another more recent animal model is the striatonigral degeneration approach in the rat according to G. K. Wenning et al., J. Neural Transm. Suppl., 1999; 55: 103-113. Rats receive an unilateral injection of 6-hydroxydopamine into the left medial forebrain bundle followed by an injection of quinolinic acid into the ipsilateral striatum inducing nigrostriatal degeneration. The degeneration results in turning behavior to a challenge with dopaminomimetics such as apomorphine or amphetamine. Turning behavior is measured by an automated recorder.

What is called IC50 is the concentration needed to halve the response being measured. What is called ED50 is the dose that gives a 50% effect, or the effect in half of the subjects.

Sequence of 5HT1A receptor (P08908 whole entry): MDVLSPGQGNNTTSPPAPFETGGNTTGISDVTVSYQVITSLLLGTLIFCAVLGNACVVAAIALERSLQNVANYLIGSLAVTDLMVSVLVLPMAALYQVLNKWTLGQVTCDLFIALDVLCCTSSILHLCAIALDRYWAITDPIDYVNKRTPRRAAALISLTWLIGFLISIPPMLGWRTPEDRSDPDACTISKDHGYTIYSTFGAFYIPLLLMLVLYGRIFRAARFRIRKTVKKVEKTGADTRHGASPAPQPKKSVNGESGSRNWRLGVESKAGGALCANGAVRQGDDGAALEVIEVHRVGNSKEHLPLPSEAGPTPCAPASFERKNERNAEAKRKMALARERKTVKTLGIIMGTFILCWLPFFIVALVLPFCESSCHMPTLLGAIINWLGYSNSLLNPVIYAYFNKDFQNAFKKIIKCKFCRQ
Sequence of dopamine D4 receptors (P21917 whole entry): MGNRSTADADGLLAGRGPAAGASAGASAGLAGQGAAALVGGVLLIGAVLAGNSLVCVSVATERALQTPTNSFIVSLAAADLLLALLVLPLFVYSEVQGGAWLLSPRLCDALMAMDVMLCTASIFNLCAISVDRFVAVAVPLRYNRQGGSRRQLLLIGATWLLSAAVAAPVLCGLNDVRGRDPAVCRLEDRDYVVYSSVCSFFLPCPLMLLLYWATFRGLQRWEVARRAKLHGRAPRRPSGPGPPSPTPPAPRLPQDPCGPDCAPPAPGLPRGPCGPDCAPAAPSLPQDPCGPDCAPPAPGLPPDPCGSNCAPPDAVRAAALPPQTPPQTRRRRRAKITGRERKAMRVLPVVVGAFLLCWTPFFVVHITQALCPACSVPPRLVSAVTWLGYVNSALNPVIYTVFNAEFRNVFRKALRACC
Sequence of D2 receptors (P14416 whole entry): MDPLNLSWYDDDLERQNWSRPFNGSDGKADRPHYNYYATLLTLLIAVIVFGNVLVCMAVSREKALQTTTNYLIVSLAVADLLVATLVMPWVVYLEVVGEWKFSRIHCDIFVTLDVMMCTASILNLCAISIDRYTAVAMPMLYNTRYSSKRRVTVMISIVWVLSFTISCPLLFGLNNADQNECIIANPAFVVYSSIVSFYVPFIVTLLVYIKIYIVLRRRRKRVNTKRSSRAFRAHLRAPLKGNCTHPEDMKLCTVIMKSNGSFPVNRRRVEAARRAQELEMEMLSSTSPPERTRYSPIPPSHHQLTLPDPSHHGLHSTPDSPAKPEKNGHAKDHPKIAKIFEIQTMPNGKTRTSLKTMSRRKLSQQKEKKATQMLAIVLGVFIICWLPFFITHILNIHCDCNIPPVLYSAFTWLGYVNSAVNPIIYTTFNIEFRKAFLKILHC

As for `O[C@@H]1C[C@H](CNCc2cncc(-c3ccc(F)cc3)c2)Oc2ccccc21` [(2R,4R)-2-({[5-(4-fluorophenyl)-pyridin-3ylmethyl]-amino}-methyl)-chroman-4-ol], in test [1], the “akinesia (distance travelled and time active)” value is “dose-dependently reduce akinesia”. Besides, the EC50 at 5HT1A receptor stood at 33 nM. Moreover, in the test with Pietrain pig, the “tremor when standing and during locomotion” value is “reduce disabling tremor when standing and during locomotion”. The TWSTRS scores entry in test [2] is listed as “significant improvement”. Also, the nocturnal akinesia result in the test on rats (after four injections of 3-NP) is given as “reduce”. Moreover, the nocturnal hyperactivity result in the test on rats (after two injections of 3-NP) is “reduce”. Further, in test [3], the “extrapyramidal motor side effects” value is on record as “dose-dependently reduce the extrapyramidal motor side effects”. Besides, the 50% inhibitory concentration (IC50) at dopamine D4 receptors was determined as 12 nM; at 5-HT1A receptor it was 10 nM. Besides, the “binding to D2 receptors” value on D2 receptors was “no or only a very weak binding”. For the same compound, the locomotor activity entry in the test on Weaver mutant mouse is “enhance locomotor activity”. The ED50 with cataleptic rat is approximately 2 mg/kg. Also, the turning behavior result with rat is on record as “dose-dependently antagonized”.

The values above are taken from patent US7618988B2, “Use of substituted aminomethyl chromans” (Merck Patentgesellschaft, priority 2001, dated 2009).
